Like-named read-outs stand apart in the source and are kept apart here.
How the values were obtained:
[1] = system: AML cell lines; test: Preliminary combination of Cpd 1 with AML drugs; format: cell-based, human; conditions: in combination with DNR, cytarabine and etoposide, data not shown
[2] = system: zebrafish larvae; test: Toxicity in zebrafish larvae (viability, MTD, morphology); format: in vivo; conditions: for Melanocyte abnormalities: wild-type AB-strain zebrafish larvae
Procedure: Phenazine 5,10-dioxides were dissolved in DMSO to give final concentrations between 5 and 20 mM and administered to the zebrafish larvae by diluting the stock solutions in the embryo medium. All compounds were tested up to a maximal concentration of 100 µM. […]
(§1) Zebrafish larvae heart rate was analysed as described by Førde et al.. To examine zebrafish larvae for morphological abnormalities, they were imaged using a Nikon Diaphot 300 inverted microscope fitted with a Nikon DS-Fi3 microscope camera and DS-L4 camera control unit.

[3] = system: AML patient blasts; test: Cell death of patient-derived AML blasts, Annexin V/propidium iodide flow cytometry, 24 h; format: cell-based, human; conditions: compared with Cpd 3, 6, 9
From the text: Blasts from 61 non-selected patients were used in this study. Supplementary Table 1 presents the patient information, classification, and genetic aberration of the blasts. Peripheral blood mononuclear cells (PBMC) from healthy volunteers were obtained from freshly drawn peripheral blood from the Department of Immunology and Transfusion Medicine, Haukeland University Hospital, Bergen, Norway. AML blasts and PBMCs were isolated by density gradient separation of peripheral blood. The patient samples contained at least 95 % leukemic blasts after isolation. Bone marrow (BM) aspirate from a healthy donor was kindly provided by Professor BT Gjertsen, Dept. Clinical Science, University of Bergen (REK Vest 2012/2247). The patient blasts were cultured in StemSpan medium supplemented with SCF, Flt-3 ligand, and G-CSF, each at a final concentration of 20 ng/mL [22, 23], treated with phenazine 5,10-dioxides or daunorubicin (DNR) for 24 h before cell death was assessed by flow-cytometric analyses as described previously. Viable cells were defined as Annexin V/propidium iodide double negative cells.

[4] = system: MOLM-13; test: WST-1 metabolic activity and Bliss synergy with VTX, MOLM-13; format: cell-based, human; conditions: for Mean Bliss interaction index (synergy score): Cpd 1 + VTX, all tested combinations
Procedure: (§2) To study the combination effect of phenazine 5,10-dioxides and VTX in AML cell lines, the cells were seeded in 96-well plates at 35,000 cells per well for 24-hour experiments or 20,000 cells per well for 48-hour experiments. Phenazine 5,10-dioxides and VTX, alone or in combination, were added in desired concentrations and cell plates incubated for 24 and 48 h. Thereafter, WST-1 was added to each well according to the manufacturer’s instructions and incubated for two hours. Absorbance was measured at 450 nm with 620 nm reference wavelength in a Wallac EnVision® 2130 multilabel plate reader, and this value was used to calculate relative metabolic activity compared to untreated cells. The cells were next fixed in 2 % formaldehyde with 0.01 mg/ml Hoechst 33,342 dye dissolved in PBS. Nuclear morphology was studied using a Nikon Diaphot 300 microscope to confirm that metabolic activity correlated with the presence of apoptotic nuclei (Supplementary Figure 1).
(§3) To calculate drug interaction, cell metabolic activity results were plotted into the interaction calculation software SynergyFinder+ [31], and Bliss independence score was used to calculate synergy.

[5] = system: MOLM-13; design: method as in PMID 34124675; conditions: ref [6]; cited from earlier work
[6] = system: MOLM-13; test: Cytotoxicity towards MOLM-13 cells (EC50); format: cell-based, human; conditions: no reference mark in Table 3
Procedure: Table 3 Toxicity of phenazine 5,10-dioxides in zebrafish larvae. Maximum tolerated doses and observed morphological alterations in zebrafish larvae caused by phenazine 5,10-dioxides dissolved in embryo medium for 48 h. Cpd: compound. MTD: maximum tolerated dose. a: EC50 values from, –: not observed. | column: MOLM-13 EC50 (µM)

[7] = system: OCI-AML3; test: WST-1 metabolic activity and Bliss synergy with VTX, OCI-AML3; format: cell-based, human; conditions: VTX alone; 24 h
Procedure: as §2, §3

[8] = system: zebrafish larvae; test: Zebrafish larvae heart rate; format: in vivo; conditions: intravenously injected, 4 nL injection, 100 µM; 24 and 48 h
Procedure: as §1

[9] = design: method as in PMID 38778732; conditions: patients receiving 400 mg VTX as a single dosage; ref [43]; cited from earlier work
[10] = ref [29]; cited from earlier work
[11] = system: xenograft MOLM-13 cells in zebrafish larvae; test: Tumour burden of xenograft MOLM-13 cells in zebrafish larvae; format: in vivo; conditions: VTX 4 nL 50 µM intravenous injection; 24 h; p < 0.001
Procedure: Prior to transplantation into zebrafish larvae, MOLM-13 cells were stained with the fluorescent marker CellTracker™ Deep Red. The cell suspension was centrifuged at 300 relative centrifugal force (RCF) for 5 min, and the medium removed. Thereafter, the cells were resuspended in serum-free RPMI-1640 medium containing 1.5 µM CellTracker™ Deep Red and incubated for 30 min at 37 °C. Excess dye was removed by centrifugation for five minutes at 300 RCF, removal of the medium and the cells were resuspended in fresh RPMI-medium to a final concentration of 10 million cells/mL. Intravenous injection of MOLM-13 cells into zebrafish larvae was performed as described in Førde et al.. The zebrafish larvae xenografts were incubated at 31.5 °C.
For quantification of tumour burden in zebrafish larvae a Nikon Ti-E inverted microscope fitted with an Andor Dragonfly 505 spinning disk confocal unit and iXon 888 Life EMCCD camera setup was used. […] The zebrafish larvae were scored based on the number of cells successfully injected and divided into treatment or control groups. […]
The Fiji macro described in [30] was used to determine MOLM-13 cancer cell burden in zebrafish larvae. […] After defining the boundary of the larva and segmentation from the background, the cells are segmented so that individual cells can be quantified (both size and number). […]

[12] = system: AML patients; design: method as in PMID 32786187; conditions: ref [14]; cited from earlier work
[13] = dissolved in embryo medium for 48 h
[14] = dissolved in embryo medium for 48 h, concentration from which observed

With `[O-][n+]1c2cccc(O)c2[n+]([O-])c2cccc(O)c21` [Cpd 1, 1,6-dihydroxyphenazine 5,10-dioxide] the Drug interaction [1] was “additive effects”, the “Lethality to zebrafish larvae” value ([2]; 100 µM (highest concentration tested), 48 h) was “not lethal” and the “Viability of zebrafish larvae (Fig. 2A annotation)” value ([2]; 48 h of exposure, up to 100 µM) was “Non-toxic”. The “MTD (maximum tolerated dose)” value [2, 13] was >100 µM, the Melanocyte abnormalities [2] was “not observed” and the “Potency towards the patient blasts” value [3] was “lowest potency”. The “Mean Bliss interaction index (synergy score)” value ([4]; 24 h) was 15.56, the “Mean Bliss interaction index (synergy score)” value ([4]; 48 h) was 10.90 and the EC50 [5] was 2000 ± 100 nM.

In the case of `COc1cccc2c1[n+]([O-])c1cccc(O)c1[n+]2[O-]` [Cpd 2, Myxin], the “Only concentration that did not cause lethality” value ([2]; 48 h exposure) is reported as 5 µM, the “MTD (maximum tolerated dose)” value [2, 13] is reported as 5 µM and the Pigmentation alterations [2, 14] is reported as “From 10 µM”. The “Concentration killing zebrafish larvae after six hours” value ([2]; in embryo medium, data not shown) was 30000 nM, the Melanocyte abnormalities [2] was “caused melanocyte abnormalities” and the EC50 [5] was 1400 ± 300 nM.

For `COc1cccc2c1[n+]([O-])c1ccccc1[n+]2[O-]` [Cpd 10], the “MTD (maximum tolerated dose)” value [2, 13] was <10 µM, the Muscle fibre alterations [2, 14] was “From 10 µM” and the Pigmentation alterations [2, 14] was “From 10 µM”. For the same molecule, the Melanocyte abnormalities [2] was “caused melanocyte abnormalities” and the EC50 [6] was 1400 ± 100 nM.

In the case of `CC1(C)CCC(CN2CCN(c3ccc(C(=O)NS(=O)(=O)c4ccc(NCC5CCOCC5)c([N+](=O)[O-])c4)c(Oc4cnc5[nH]ccc5c4)c3)CC2)=C(c2ccc(Cl)cc2)C1` [VTX, venetoclax], the “Concentration until which no reduction in metabolic activity” value [7] is reported as 6 µM, the “Sensitivity of OCI-AML3 cells” value [7] is reported as “high resistance” and the “Heartrate of zebrafish larvae relative to control” value [8] is reported as “No significant differences”. The Cmax [9] was ~2500 nM, the Relative metabolic activity ([4]; 6 nM VTX alone, 48 h) was 59% and the Permeability [10] was “low permeability”. The “Cancer cell burden relative to control” value [11] was “reduced cancer cell burden”.

In the case of `Nc1ncn([C@@H]2O[C@H](CO)[C@@H](O)[C@H]2O)c(=O)n1` [azacitidine], the Median overall survival [12] is listed as 9.6 months.
